Results: PubChem BioAssay AID256 (DTP/NCI, 2004)
Several values for one entry are separate records, joined by “and”; a condition that tells them apart may be missing. Equal entries are not always repeated. Inconclusive results and toxic doses are left out. The calls were made as follows: active = survival T/C of 150% or more; inactive = T/C below 125% in these data.

System: CD2F1 mice, L1210 leukemia ip, survival T/C
Experiment: NCI In Vivo Anticancer Drug Screen. Data for tumor model L1210 Leukemia (intraperitoneal) in CD2F1 (CDF1) mice
Details: higher = longer survival
How it was run: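 Ratio T/C, where T is the treated-group value and C the vehicle-dosed control value, from mice implanted with a transplantable tumor.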

[1] = endpoint: mean survival time, dose: 50.0 mg/kg/injection, schedule: Q01DX009 (ip), vehicle: saline
[2] = endpoint: mean survival time, dose: 100.0 mg/kg/injection, schedule: Q01DX001 (ip), vehicle: saline with Tween-80
[3] = endpoint: mean survival time, dose: 200.0 mg/kg/injection, schedule: Q01DX001 (ip), vehicle: saline with Tween-80
[4] = endpoint: mean survival time, dose: 400.0 mg/kg/injection, schedule: Q01DX001 (ip), vehicle: saline with Tween-80

Measured: T/C

CCOC(=O)Nc1ccc2c(c1)Cc1cc(N=Cc3ccc4c(c3)OCO4)ccc1-2
inactive: endpoint: mean survival time, dose: 100.0 mg/kg/injection, schedule: Q01DX001 (ip), vehicle: carboxymethylcellulose (CMC) 105 % of control | endpoint: mean survival time, dose: 200.0 mg/kg/injection, schedule: Q01DX001 (ip), vehicle: carboxymethylcellulose (CMC) 100 % of control | endpoint: mean survival time, dose: 400.0 mg/kg/injection, schedule: Q01DX001 (ip), vehicle: carboxymethylcellulose (CMC) 97 % of control

Cn1c(=O)c2c(n(C)c1=O)n1cnnc1n2C
inactive: endpoint: mean survival time, dose: 12.5 mg/kg/injection, schedule: Q01DX005 (ip), vehicle: distilled water + Tween-80 95 % of control | endpoint: mean survival time, dose: 25.0 mg/kg/injection, schedule: Q01DX005 (ip), vehicle: distilled water + Tween-80 100 % of control | endpoint: mean survival time, dose: 50.0 mg/kg/injection, schedule: Q01DX005 (ip), vehicle: distilled water + Tween-80 100 % of control | endpoint: mean survival time, dose: 100.0 mg/kg/injection, schedule: Q01DX005 (ip), vehicle: distilled water + Tween-80 100 % of control | endpoint: mean survival time, dose: 200.0 mg/kg/injection, schedule: Q01DX005 (ip), vehicle: distilled water + Tween-80 89 % of control

CC(C)CC(NC(=O)C(CSC(c1ccccc1)(c1ccccc1)c1ccccc1)NC(c1ccccc1)(c1ccccc1)c1ccccc1)C(=O)O (stereo unspecified)
inactive: [1] 97 % of control | endpoint: mean survival time, dose: 100.0 mg/kg/injection, schedule: Q01DX009 (ip), vehicle: saline 91 % of control | endpoint: mean survival time, dose: 200.0 mg/kg/injection, schedule: Q01DX009 (ip), vehicle: saline 92 % of control | endpoint: mean survival time, dose: 400.0 mg/kg/injection, schedule: Q01DX009 (ip), vehicle: saline 91 % of control

CCOC(=O)Nc1cc(N)c2ncc(-c3ccc(Cl)cc3)nc2n1
inactive: endpoint: mean survival time, dose: 100.0 mg/kg/injection, schedule: Q04DX003 (ip), vehicle: saline with Tween-80 91 % of control | endpoint: mean survival time, dose: 200.0 mg/kg/injection, schedule: Q04DX003 (ip), vehicle: saline with Tween-80 91 % of control | endpoint: mean survival time, dose: 400.0 mg/kg/injection, schedule: Q04DX003 (ip), vehicle: saline with Tween-80 95 % of control

NC(N)=NOCC[C@@H](N)C(=O)O
inactive: endpoint: median survival time, dose: 25.0 mg/kg/injection, schedule: Q01DX009 (ip), vehicle: saline 102 % of control | endpoint: median survival time, dose: 50.0 mg/kg/injection, schedule: Q01DX009 (ip), vehicle: saline 101 % of control | endpoint: median survival time, dose: 100.0 mg/kg/injection, schedule: Q01DX009 (ip), vehicle: saline 98 % of control | endpoint: median survival time, dose: 200.0 mg/kg/injection, schedule: Q01DX009 (ip), vehicle: saline 103 % of control | endpoint: median survival time, dose: 400.0 mg/kg/injection, schedule: Q01DX009 (ip), vehicle: saline 102 % of control | endpoint: median survival time, dose: 500.0 mg/kg/injection, schedule: Q01DX001 (ip), vehicle: saline 97 % of control | endpoint: median survival time, dose: 750.0 mg/kg/injection, schedule: Q01DX001 (ip), vehicle: saline 96 % of control | endpoint: median survival time, dose: 1000.0 mg/kg/injection, schedule: Q01DX001 (ip), vehicle: saline 84 % of control | endpoint: median survival time, dose: 2500.0 mg/kg/injection, schedule: Q01DX001 (ip), vehicle: saline 97 % of control

O=C(Nc1nccs1)c1ccc([N+](=O)[O-])cc1
inactive: [2] 95 % of control | [3] 88 % of control | [4] 100 % of control

NC(CSS(=O)(=O)O)=NCC1CCCCC1
inactive: endpoint: mean survival time, dose: 6.25 mg/kg/injection, schedule: Q04DX002 (ip), vehicle: saline with Tween-80 101 % of control and 107 % of control | endpoint: mean survival time, dose: 12.5 mg/kg/injection, schedule: Q04DX002 (ip), vehicle: saline with Tween-80 104 % of control and 112 % of control | endpoint: mean survival time, dose: 25.0 mg/kg/injection, schedule: Q04DX002 (ip), vehicle: saline with Tween-80 96 % of control

COCCNP(=S)(OC)OC
inactive: [2] 100 % of control | [3] 101 % of control | [4] 106 % of control

CC1(Br)C(C)(Br)C(C)(Br)C(C)(Br)C(C)(Br)C1(C)Br (stereo unspecified)
inactive: [2] 96 % of control | [3] 101 % of control | [4] 101 % of control

C=C(C)CNC1=C(C)C(=O)C2=C(C1=O)[C@@H](COC(N)=O)[C@]1(OC)[C@@H]3N[C@@H]3CN21
inactive: endpoint: mean survival time, dose: 1.5 mg/kg/injection, schedule: Q01DX001 (ip), vehicle: water 97 % of control | endpoint: mean survival time, dose: 3.0 mg/kg/injection, schedule: Q01DX001 (ip), vehicle: water 103 % of control | endpoint: mean survival time, dose: 6.0 mg/kg/injection, schedule: Q01DX001 (ip), vehicle: distilled water + Tween-80 104 % of control | endpoint: mean survival time, dose: 6.0 mg/kg/injection, schedule: Q01DX001 (ip), vehicle: water 103 % of control | endpoint: mean survival time, dose: 12.0 mg/kg/injection, schedule: Q01DX001 (ip), vehicle: distilled water + Tween-80 114 % of control | endpoint: mean survival time, dose: 12.0 mg/kg/injection, schedule: Q01DX001 (ip), vehicle: water 108 % of control | endpoint: mean survival time, dose: 48.0 mg/kg/injection, schedule: Q01DX001 (ip), vehicle: distilled water + Tween-80 108 % of control

O=c1[nH]c(=O)c2n[nH]nc2[nH]1
inactive: endpoint: mean survival time, dose: 23.0 mg/kg/injection, schedule: Q01DX009 (ip), vehicle: saline 104 % of control | endpoint: mean survival time, dose: 35.0 mg/kg/injection, schedule: Q01DX009 (ip), vehicle: saline 101 % of control | [1] 98 % of control
